# Reference: ChEMBL document CHEMBL4396913, “Synthesis and biological evaluation of hybrid quinolone-based quaternary ammonium antibacterial agents” (Eur J Med Chem, 2019)
# Calls of active or inactive are those of the source. The calls are words filed in the database; no cut-off is given here.
# Key:
# [1] = system: Proteus vulgaris; assay: Antibacterial activity against Proteus vulgaris NCTC 4635 cultured in MH medium assessed as reduction in bacterial growth incubated for 48 hrs by microbroth dilution method; assay type: functional; details: NCTC 4635, 48 h
# [2] = system: Staphylococcus epidermidis; assay: Bactericidal activity against methicillin resistant Staphylococcus epidermidis ATCC 13199 cultured in MH medium assessed as reduction in bacterial survival incubated for 48 hrs by microbroth dilution method; assay type: functional; details: ATCC 13199, 48 h
# [3] = system: Proteus vulgaris; assay: Resistance index, ratio of MIC for Proteus vulgaris NCTC 4635 measured after 5 dilution steps to MIC for Proteus vulgaris NCTC 4635 measured after 48 hrs incubation by microbroth dilution method; assay type: functional
# [4] = system: Enterococcus hirae; assay: Antibacterial activity against Enterococcus hirae ATCC 1052 cultured in BHI medium assessed as reduction in bacterial growth incubated for 48 hrs by microbroth dilution method; assay type: functional; details: ATCC 1052, 48 h
# [5] = system: Serratia marcescens; assay: Bactericidal activity against Serratia marcescens ATCC 12795 cultured in MH medium assessed as reduction in bacterial survival incubated for 48 hrs by microbroth dilution method; assay type: functional; details: ATCC 12795, 48 h
# [6] = system: Staphylococcus epidermidis; assay: Antibacterial activity against Staphylococcus epidermidis ATCC 14990 cultured in MH medium assessed as reduction in bacterial growth incubated for 48 hrs by microbroth dilution method; assay type: functional; details: ATCC 14990, 48 h
# [7] = system: Streptococcus pneumoniae; assay: Bactericidal activity against Streptococcus pneumoniae cultured in MH medium assessed as reduction in bacterial survival incubated for 48 hrs by microbroth dilution method; assay type: functional
# [8] = system: Escherichia coli; assay: Bactericidal activity against Escherichia coli ATCC 8739 cultured in MH medium assessed as reduction in bacterial survival incubated for 48 hrs by microbroth dilution method; assay type: functional; details: ATCC 8739, 48 h
# [9] = system: Staphylococcus aureus; assay: Antibacterial activity against Staphylococcus aureus ATCC 6538 cultured in MH medium assessed as reduction in bacterial growth incubated for 48 hrs by microbroth dilution method; assay type: functional; details: ATCC 6538, 48 h
# [10] = system: Staphylococcus aureus; assay: Bactericidal activity against Staphylococcus aureus ATCC 6538 cultured in MH medium assessed as reduction in bacterial survival incubated for 48 hrs by microbroth dilution method; assay type: functional; details: ATCC 6538, 48 h
# [11] = system: Bacillus spizizenii; assay: Bactericidal activity against Bacillus subtilis ATCC 6633 cultured in MH medium assessed as reduction in bacterial survival incubated for 48 hrs by microbroth dilution method; assay type: functional; details: ATCC 6633, 48 h
# [12] = system: Pseudomonas aeruginosa; assay: Antibacterial activity against Pseudomonas aeruginosa ATCC 9027 cultured in MH medium assessed as reduction in bacterial growth incubated for 48 hrs by microbroth dilution method; assay type: functional; details: ATCC 9027, 48 h
# [13] = system: Pseudomonas aeruginosa; assay: Bactericidal activity against Pseudomonas aeruginosa ATCC 9027 cultured in MH medium assessed as reduction in bacterial survival incubated for 48 hrs by microbroth dilution method; assay type: functional; details: ATCC 9027, 48 h
# [14] = system: Proteus vulgaris; assay: Bactericidal activity against Proteus vulgaris NCTC 4635 cultured in MH medium assessed as reduction in bacterial survival incubated for 48 hrs by microbroth dilution method; assay type: functional; details: NCTC 4635, 48 h
# [15] = Lipophilicity, log k of the compound at 100 ug/ml by micellar electrokinetic chromatography; assay type: physicochemical
# [16] = system: Staphylococcus epidermidis; assay: Antibacterial activity against methicillin resistant Staphylococcus epidermidis ATCC 13199 cultured in MH medium assessed as reduction in bacterial growth incubated for 48 hrs by microbroth dilution method; assay type: functional; details: ATCC 13199, 48 h
# [17] = system: Staphylococcus aureus; assay: Antibacterial activity against methicillin resistant Staphylococcus aureus 6347 cultured in MH medium assessed as reduction in bacterial growth incubated for 48 hrs by microbroth dilution method; assay type: functional; details: Staphylococcus aureus, 6347, 48 h
# [18] = system: Serratia marcescens; assay: Antibacterial activity against Serratia marcescens ATCC 12795 cultured in MH medium assessed as reduction in bacterial growth incubated for 48 hrs by microbroth dilution method; assay type: functional; details: ATCC 12795, 48 h
# [19] = system: Staphylococcus epidermidis; assay: Bactericidal activity against Staphylococcus epidermidis ATCC 14990 cultured in MH medium assessed as reduction in bacterial survival incubated for 48 hrs by microbroth dilution method; assay type: functional; details: ATCC 14990, 48 h
# [20] = system: Staphylococcus aureus; assay: Bactericidal activity against methicillin resistant Staphylococcus aureus 6347 cultured in MH medium assessed as reduction in bacterial survival incubated for 48 hrs by microbroth dilution method; assay type: functional; details: Staphylococcus aureus, 6347, 48 h
# [21] = system: Escherichia coli; assay: Antibacterial activity against Escherichia coli ATCC 8739 cultured in MH medium assessed as reduction in bacterial growth incubated for 48 hrs by microbroth dilution method; assay type: functional; details: ATCC 8739, 48 h
# [22] = system: Streptococcus pneumoniae; assay: Antibacterial activity against Streptococcus pneumoniae cultured in MH medium assessed as reduction in bacterial growth incubated for 48 hrs by microbroth dilution method; assay type: functional
# [23] = system: Staphylococcus aureus; assay: Antibacterial activity against methicillin resistant Staphylococcus aureus N315 cultured in MH medium assessed as reduction in bacterial growth incubated for 48 hrs by microbroth dilution method; assay type: functional; details: N315, 48 h
# [24] = system: Enterococcus hirae; assay: Bactericidal activity against Enterococcus hirae ATCC 1052 cultured in BHI medium assessed as reduction in bacterial survival incubated for 48 hrs by microbroth dilution method; assay type: functional; details: ATCC 1052, 48 h
# [25] = system: Staphylococcus aureus; assay: Bactericidal activity against methicillin resistant Staphylococcus aureus N315 cultured in MH medium assessed as reduction in bacterial survival incubated for 48 hrs by microbroth dilution method; assay type: functional; details: N315, 48 h
# [26] = system: Bacillus spizizenii; assay: Antibacterial activity against Bacillus subtilis ATCC 6633 cultured in MH medium assessed as reduction in bacterial growth incubated for 48 hrs by microbroth dilution method; assay type: functional; details: ATCC 6633, 48 h
# [27] = system: Staphylococcus aureus; assay: Antibiofilm activity against Staphylococcus aureus ATCC 6538 assessed as biofilm formation at 0.5 times antibacterial MIC incubated for 24 hrs compound added prior to bacterial biofilm formation by total biomass crystal violet staining-based method relative to control; assay type: functional
# [28] = system: Staphylococcus aureus; assay: Biofilm degradation activity against Staphylococcus aureus ATCC 6538 assessed as biofilm formation at 2 times antibacterial MIC incubated for 24 hrs compound added post-biofilm formation by total biomass crystal violet staining-based method; assay type: functional
# [29] = system: Pseudomonas aeruginosa; assay: Biofilm degradation activity against Pseudomonas aeruginosa ATCC 9027 assessed as biofilm formation at 2 times antibacterial MIC incubated for 24 hrs compound added post-biofilm formation by total biomass crystal violet staining-based method; assay type: functional
# [30] = system: Pseudomonas aeruginosa; assay: Biofilm degradation activity against Pseudomonas aeruginosa ATCC 9027 assessed as biofilm formation at antibacterial MIC incubated for 24 hrs compound added post-biofilm formation by total biomass crystal violet staining-based method; assay type: functional
# [31] = system: Staphylococcus aureus; assay: Antibiofilm activity against Staphylococcus aureus ATCC 6538 assessed as biofilm formation at antibacterial MIC incubated for 24 hrs compound added prior to bacterial biofilm formation by total biomass crystal violet staining-based method relative to control; assay type: functional
# [32] = system: Pseudomonas aeruginosa; assay: Antibiofilm activity against Pseudomonas aeruginosa ATCC 9027 assessed as biofilm formation at antibacterial MIC incubated for 24 hrs compound added prior to bacterial biofilm formation by total biomass crystal violet staining-based method relative to control; assay type: functional
# [33] = molecular target: DNA gyrase (Escherichia coli) (UniProt P0AES6+P0AES4); assay: Inhibition of Escherichia coli DNA gyrase super-coiling activity using relaxed pNO1 DNA as substrate assessed as enzyme residual activity at 1 uM incubated for 30 mins by fluorescence assay relative to control; assay type: protein-complex assay
# [34] = system: Staphylococcus aureus; details: ATCC 25923, 10 to 40 uM
# Description: Antibiofilm activity Staphylococcus aureus ATCC 25923 pre-formed mature biofilm assessed as reduction in biofilm viability at 10 to 40 uM incubated for 24 hrs compound added post-biofilm formation by resazurin staining based assay relative to control
# [35] = system: Staphylococcus aureus; assay: Biofilm degradation activity against Staphylococcus aureus ATCC 6538 assessed as biofilm formation at antibacterial MIC incubated for 24 hrs compound added post-biofilm formation by total biomass crystal violet staining-based method; assay type: functional
# [36] = system: Escherichia coli; assay: Induction of inner membrane permeabilization in Escherichia coli ATCC 8739 assessed as increase in release of cytoplasmic beta galactosidase using ONPG as substrate at 128 ug/ml incubated for 90 mins compound added with bacterial cells after lag time of about 10 mins by spectrophotometry; assay type: organism-based
# [37] = system: Pseudomonas aeruginosa; assay: Antibiofilm activity against Pseudomonas aeruginosa ATCC 9027 assessed as biofilm formation at 0.5 times antibacterial MIC incubated for 24 hrs compound added prior to bacterial biofilm formation by total biomass crystal violet staining-based method relative to control; assay type: functional
# [38] = system: Pseudomonas aeruginosa; assay: Biofilm degradation activity against Pseudomonas aeruginosa ATCC 9027 assessed as biofilm formation at 4 times antibacterial MIC incubated for 24 hrs compound added post-biofilm formation by total biomass crystal violet staining-based method; assay type: functional
# [39] = system: Staphylococcus aureus; assay: Biofilm degradation activity against Staphylococcus aureus ATCC 6538 assessed as biofilm formation at 4 times antibacterial MIC incubated for 24 hrs compound added post-biofilm formation by total biomass crystal violet staining-based method; assay type: functional
# [40] = system: Staphylococcus aureus; details: ATCC 25923, 10 to 40 uM; remark: listed apart in the source
# Description: Antibiofilm activity Staphylococcus aureus ATCC 25923 pre-formed mature biofilm assessed as reduction in biofilm biomass at 10 to 40 uM incubated for 24 hrs compound added post biofilm formation by crystal violet staining based assay relative to control
# [41] = system: Staphylococcus epidermidis; assay: Ratio of gatifloxacin resistance index to compound resistance index for methicillin resistant Staphylococcus epidermidis ATCC 13199 by microbroth dilution method; assay type: functional
# [42] = system: Escherichia coli; assay: Bactericidal activity against […] Escherichia coli ATCC 8739 assessed as reduction in bacterial survival incubated for 48 hrs in presence of 50 ug/ml […], PAbetaN by microbroth dilution method; assay type: functional; details: ATCC 8739, 48 h
# [43] = system: HEK293; assay: Cytotoxicity against human HEK293 cells assessed as cell viability upto 20 uM incubated for 72 hrs by MTT assay; assay type: cell-based; details: hek293, 72 h
# [44] = system: Escherichia coli; assay: Antibacterial activity against […] Escherichia coli ATCC 8739 assessed as reduction in bacterial growth incubated for 48 hrs in presence of 50 ug/ml […], PAbetaN by microbroth dilution method; assay type: functional; details: ATCC 8739, 48 h
# [45] = system: Proteus vulgaris; assay: Antibacterial activity against Proteus vulgaris NCTC 4635 measured after 15 passages by microbroth dilution method; assay type: functional
# [46] = system: Proteus vulgaris; assay: Resistance index, ratio of MIC for Proteus vulgaris NCTC 4635 measured after 15 passages to MIC for Proteus vulgaris NCTC 4635 measured after 48 hrs incubation by microbroth dilution method; assay type: functional
# [47] = system: HEK293; assay: Cytotoxicity against human HEK293 cells assessed as changes in cell morphology upto 20 uM incubated for 72 hrs by MTT assay; assay type: cell-based; details: hek293, 72 h
SMILES,MIC [1],MBC [2],MIC [4],MBC [5],MIC [6],MBC [7],MBC [8],MIC [9],MBC [10],MBC [11],MBC [13],MBC [14],MIC [17],MIC [18],MBC [19],MBC [20],MIC [21],MIC [22],MIC [23],MIC [26],also measured
COc1c(N2CCNC(C)C2)c(F)cc2c(=O)c(C(=O)O)cn(C3CC3)c12 (stereo unspecified) [GATIFLOXACIN],0.008 µg/mL,0.063 µg/mL,8 µg/mL,0.5 µg/mL,0.125 µg/mL,256 µg/mL,0.032 µg/mL,0.25 µg/mL,0.25 µg/mL,0.063 µg/mL,0.25 µg/mL,0.008 µg/mL,0.125 µg/mL,0.25 µg/mL,0.25 µg/mL,0.125 µg/mL,0.016 µg/mL,1 µg/mL,0.125 µg/mL,0.032 µg/mL,Ratio [3]: 32; MIC [12]: 0.25 µg/mL; log K [15]: 0.101; MIC [16]: 0.063 µg/mL; MBC [24]: 16 µg/mL; MBC [25]: 0.125 µg/mL
O=C(O)c1cn(C2CC2)c2cc(N3CCNCC3)c(F)cc2c1=O [CIPROFLOXACIN],0.008 µg/mL,–,128 µg/mL,0.125 µg/mL,0.25 µg/mL,> 512 µg/mL,0.032 µg/mL,0.25 µg/mL,0.5 µg/mL,0.063 µg/mL,0.5 µg/mL,0.008 µg/mL,0.25 µg/mL,0.125 µg/mL,0.25 µg/mL,0.5 µg/mL,0.032 µg/mL,8 µg/mL,1 µg/mL,0.032 µg/mL,Activity [27]: 5%; Activity [28]: 17%; Activity [29]: 72%; Activity [30]: 76%; Activity [31]: 3%; Activity [32]: 3%; Activity [33]: 7%; inhibition [34]: Active; Activity [35]: 21%; Activity [36]: Active; Activity [37]: 7%; Activity [38]: 64%; MBC [24]: 128 µg/mL; Activity [39]: 31%; inhibition [40]: Active
COc1c(N2CC[N+]3(CN4C(C)=CC(C)=C(C(=O)O)C4=N3)C(C)C2)c(F)cc2c(=O)c(C(=O)O)cn(C3CC3)c12.[Cl-] (stereo unspecified),0.5 µg/mL,8 µg/mL,> 512 µg/mL,32 µg/mL,8 µg/mL,256 µg/mL,2 µg/mL,8 µg/mL,16 µg/mL,2 µg/mL,256 µg/mL,0.5 µg/mL,8 µg/mL,32 µg/mL,16 µg/mL,16 µg/mL,2 µg/mL,128 µg/mL,8 µg/mL,2 µg/mL,Ratio [41]: 2; MBC [42]: 2 µg/mL; MIC [12]: 32 µg/mL; log K [15]: -0.408; MIC [16]: 4 µg/mL; Activity [43]: Non-Toxic; MIC [44]: 1 µg/mL; MBC [25]: 8 µg/mL; MIC [45]: 2 µg/mL; Ratio [46]: 4; Activity [47]: Non-Toxic
